# In patent US12576060B2, “Water soluble 3-O-acetyl-11-keto-β-boswellic acid and metal ion compositions, process for their preparation and uses thereof” (LAILA NUTRA PRIVATE LIMITED, priority 2020, dated 2026):
# Values joined by “and” are separate entries in the source; they are usually repeats but may differ in a detail not shown here. Equal values may be shown once.
# Assays:
# pH of 1% solution = type: physicochemical
# Description: (§1) These potassium or sodium salts of AKBA were evaluated for their solubility in water and determined their pH.
# [1] = test system: Leukotriene B4 (LTB4) production; experiment: Assay for Leukotriene B4 (LTB4) inhibition in A23187-induced polymorphonuclear leukocytes (PMNs); type: cell-based; conditions: human PMNs, 10 μM A23187 induction
# Description: Human blood was collected from healthy volunteers from a peripheral vein in the presence of 2 mM EDTA. Plasma was separated by centrifugation at 1000 rpm for 10 minutes, and the residual cell pellet was resuspended in RPMI medium supplemented with 10% FBS and 2 mM EDTA. Thirty milliliters of blood cell suspension was carefully overlayed onto 15 mL of Ficoll/Lymphoprep in a 50 mL falcon tube in the dark, and the tube was centrifuged at 350×g for 30 minutes without using the brake. After removing the peripheral blood mononuclear cells (PBMC) and Ficoll/Lymphoprep, the settled red blood cell (RBC) layer containing granulocytes was treated with ACK lysis buffer (Gibco Cat #A10492-01) to lyse the RBC. After centrifugation at 1200 rpm for 10 minutes, the resulting cell pellet of polymorphonuclear leukocytes (PMNs) was resuspended in RPMI containing 1% newborn calf serum (NBCS). These cells were seeded in a 96-well plate at a density of 50,000 cells/well and treated with different concentrations of the test samples. Cells with 0.2% DMSO served as vehicle control. The plate was incubated in a CO2 incubator at 37° C. for 2 hrs. Finally, the cells treated with test samples were induced with 10 μM A23187 for 10 minutes at 37° C. in a CO2 incubator. The cells treated with only A23187 served as induction control. The plate was centrifuged at 1200 rpm for 5 minutes, and 120 μL cell-free supernatants were collected. Quantitation of LTB4 was performed using an ELISA kit (R&D Systems, Cat #SKGE006B) following the manufacturer's instructions. Absorbance was measured at 450 nm with a correction wavelength of 570 nm in a plate reader (Spectramax2e, Molecular Devices, USA). The reduction of LTB4 production was calculated using the following formula. % reduction of LTB4=[(Normalized Conc. of LTB4 in Induction)−(Normalized Conc. of LTB4 in Test sample)]/(Normalized Conc. of LTB4 in Induction)×100 The results are presented in tables: 3-5.
# C-reactive protein (CRP) = experiment: Reduction of C-Reactive Protein (CRP) in muscle, exercise-induced DOMS model of rats; type: in vivo, Sprague Dawley rats; conditions: 25 mg/kg for seven days; for Mean CRP conc.: EDL muscle tissue lysate; for % reduction of CRP from normal control: EDL muscle
# Description: On day 1 of the study, male Sprague Dawley rats (8-12 weeks) were randomized into seven groups, each group contained seven animals. Basal readings (Paw Withdrawal Threshold) of mechanical hyperalgesia (Electronic von Frey) were obtained. Animals were dosed with either 25 mg/kg of the test items or vehicle (0.5% CMC-Na) for seven days. On day 5, Delayed Onset of Muscle Soreness (DOMS) was induced by introducing the animals to downhill treadmill running task (rate, 15 m/min; time, 5 min; incline, −20° followed by a 1-min rest, repeated 18 times) for 90 min or till exhaustion. Paw Withdrawal Threshold (PWT) was measured at 1 h, 4 h, 24 h (day 6) and 48 h (day 7) post to eccentric exercise and the exploratory behavior measurements were taken at 1 h and 4 h post to DOMS induction. Terminal necropsy was performed after euthanizing the animals under CO2 asphyxiation.
# Small pieces of the extensor digitorum longus (EDL) muscles were macerated in liquid nitrogen (LN2) and homogenized in a tissue lysis buffer [50 mM Tris-HCl (pH 7.4), 150 mM NaCl, 5 mM EDTA, 0.5% sodium dodecyl sulfate (SDS), 1% deoxycholate, 0.1% Triton X-100, 1% Nonidet P-40 (NP-40), 0.05% mercaptoethanol, 10 mg/ml PMSF, 0.5 mg/ml leupeptin, 0.2 mg/ml aprotinin, and 1 mM Na3VO4]. The homogenate was centrifuged at 18928 g for 25 min at 4° C., and the supernatant was collected. Protein concentrations of the tissue lysates were determined using BCA protein assay kit (Thermo Fisher, Rockford, IL). C-reactive protein (CRP) concentrations in the muscle tissue lysates were determined using a commercial kit (Rat CRP/C-Reactive Protein ELISA Kit, Sigma, Cat #RAB0097) following the manufacturer's instructions, where the samples were diluted with assay buffer (1:10000) and performed the assay. The amount of CRP present in the tissue lysates was calculated and expressed as nanogram (ng) per milligram of protein. The reduction of CRP concentration in the muscle samples in the treated groups was calculated using the following formula.
# [2] = Solubility in water of potassium or sodium salts of AKBA; type: physicochemical; conditions: volume of water needed to completely dissolve 1.0 g; room temperature (RT)
# Description: as §1
# [3] = test system: Prostaglandin E2 (PGE2) production; experiment: Assay for Prostaglandin E2 (PGE2) inhibition in LPS-induced peripheral blood mononuclear cells (PBMC); type: cell-based; conditions: LPS 10 ng/mL induction; for % Inhibition of PGE2: human PBMC
# Description: Human blood was collected from healthy volunteers from a peripheral vein with a syringe containing EDTA at a final concentration of 2 mM. Plasma was separated by centrifugation at 1000 rpm for 10 minutes, and the residual blood was diluted with RPMI medium supplemented with 10% FBS and 2 mM EDTA in a ratio of 1:3. Thirty milliliters of blood was carefully layered onto the 15 mL of Ficoll/Lymphoprep in a 50 mL falcon tube, and tubes were centrifuged at 350×g for 30 minutes at an acceleration of 9 without using the brake. Buffy coat (interface between medium and Ficoll) containing peripheral blood mononuclear cells (PBMC) was collected carefully in 25 mL of cold 1× phosphate-buffered saline (PBS) and centrifuged at 1200 rpm for 10 minutes. Residual RBCs found in PBMCs pellet were removed by treating with ACK lysis buffer (Gibco Cat #A10492-01) and washed with fresh 1×PBS. PBMC were seeded in a 96-well plate with a density of 0.1×10^6 cells/well and treated with different concentrations of test samples. Cells with 0.2% DMSO served as vehicle control. The plate was incubated in a CO2 incubator at 37° C. for 2 hrs. Finally, cells were induced with LPS (10 ng/mL final concentration) for 4 hours except for vehicle control by keeping the plate at 37° C. in a CO2 incubator. The plate was centrifuged at 1200 rpm for 5 minutes, and 120 μL cell-free supernatants were collected. Quantitation of PGE2 was performed using an ELISA kit (Cayman Chemicals Cat #514010) according to the manufacturer's instructions. Absorbance was measured at 412 nm in a kinetic mode for 30 minutes in a microplate reader (Spectramax2e, Molecular Devices, USA). Percent Inhibition of PGE2 was calculated using the following formula. % Inhibition of PGE2=(Normalized conc. of PGE2 in Induction)−(Normalized conc. of PGE2 in Test sample)/×100 • (Normalized conc. of PGE2 in Induction)
# The normalized PGE2 concentration in the LPS induced or the treated wells were obtained from deducting the […].
Molecule,pH (1% solution) (pH of 1% solution),% reduction of LTB4 ([1]; 1.0 μg/mL) [%],% reduction of LTB4 ([1]; 2.5 μg/mL),Mean CRP conc. (C-reactive protein (CRP)),% reduction of CRP from normal control (C-reactive protein (CRP)) [%],Solubility of 1.0 g of product in water [2] [mL],% Inhibition of PGE2 ([3]; 1.0 μg/mL) [%],% Inhibition of PGE2 ([3]; 2.5 μg/mL) [%],"inhibition at 1 µg/mL ([3]; Homo sapiens, PBMC, 1.0 μg/mL) [%]","inhibition at 2.5 µg/mL ([3]; Homo sapiens, PBMC, 2.5 μg/mL) [%]"
"CC(=O)O[C@@H]1CC[C@@]2(C)[C@@H](CC[C@]3(C)[C@@H]2C(=O)C=C2[C@@H]4[C@@H](C)[C@H](C)CC[C@]4(C)CC[C@]23C)[C@@]1(C)C(=O)O [LN03, 3-O-acetyl-11-keto-β-boswellic acid]",6.63,16.72,26.83%,65.44 ng/mg of protein,40.60,>1000,15.02,26.28,–,–
"CC(=O)O[C@@H]1CC[C@@]2(C)[C@@H](CC[C@]3(C)[C@@H]2C(=O)C=C2[C@@H]4[C@@H](C)[C@H](C)CC[C@]4(C)CC[C@]23C)[C@@]1(C)C(=O)O [LN04, 3-O-acetyl-11-keto-β-boswellic acid]",6.64,16.03,28.71%,–,–,>1000,–,–,17.2,20
"[Cl-].[K+] [LN11, potassium chloride]",–,–,–,78.21 ng/mg of protein,10.23,–,–,–,–,–
"[Cl-].[Na+] [LN12, sodium chloride]",–,–,–,78.04 ng/mg of protein,10.64,–,–,–,–,–
potassium salt or complex or chelate of 3-O-acetyl-11-keto-β-boswellic acid [LN05],9.24,21.95,57.57%,–,–,–,24.42,42.29,–,–
potassium salt or complex or chelate of 3-O-acetyl-11-keto-β-boswellic acid [LN07],9.21,20.26,55.85%,56.97 ng/mg of protein,60.75,60,26.50,49.08,–,–
sodium salt of 3-O-acetyl-11-keto-β-boswellic acid [LN06],9.27,20.16,47.97% and 47.87%,–,–,80,25.64,41.23,–,–
sodium salt of 3-O-acetyl-11-keto-β-boswellic acid [LN08],8.74,21.66,46.10%,58.99 ng/mg of protein,55.94,–,25.61,47.56,–,–
